Source: the supplement of paper PMC10307832

Tests used:
Test in all cases: relative viability (nuclei count vs DMSO), 5 days (fraction); higher = more cells survive
[1] = compound: CCN(CCO)CCCC(C)Nc1ccnc2cc(Cl)ccc12 [Hydroxychloroquine] + Cc1nc(Nc2ncc(C(=O)Nc3c(C)cccc3Cl)s2)cc(N2CCN(CCO)CC2)n1 [Dasatinib] (partner 0.075 µM)
Outline: (§1)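 One day after seeding in 1536-well plates, lung cancer cell lines were dosed by pin tool. Dosing was either single-drug or a fixed anchor-drug dose plus five library-drug doses (not always all listed) in √10 steps. After 5 days, nuclei were stained in one fix-and-stain step and counted on 4× images, and relative viability is the nuclei count of treated wells over that of vehicle wells, given as the median of duplicate plates.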

[2] = compound: CCN(CCO)CCCC(C)Nc1ccnc2cc(Cl)ccc12 [Hydroxychloroquine] + O=C(CCCCCCC(=O)Nc1ccccc1)NO [Vorinostat] (partner 1 µM)
Outline: as §1

[3] = compound: CCN(CCO)CCCC(C)Nc1ccnc2cc(Cl)ccc12 [Hydroxychloroquine] + C[C@@H](Oc1cc(-c2cnn(C3CCNCC3)c2)cnc1N)c1c(Cl)ccc(F)c1Cl [Crizotinib] (partner 1 µM)
Outline: as §1

[4] = compound: CCN(CCO)CCCC(C)Nc1ccnc2cc(Cl)ccc12 [Hydroxychloroquine] + CC1(C)CCC(c2ccc(Cl)cc2)=C(CN2CCN(c3ccc(C(=O)NS(=O)(=O)c4ccc(N[C@H](CCN5CCOCC5)CSc5ccccc5)c(S(=O)(=O)C(F)(F)F)c4)cc3)CC2)C1 [Navitoclax] (partner 0.5 µM)
Outline: as §1

Cell Line	relative viability ([1]; first compound 0.5 µM)	relative viability ([1]; first compound 1.581 µM)	relative viability ([1]; first compound 5 µM)	relative viability ([1]; first compound 15.81 µM)	relative viability ([1]; first compound 50 µM)	relative viability ([2]; first compound 0.5 µM)	relative viability ([2]; first compound 1.581 µM)	relative viability ([2]; first compound 5 µM)	relative viability ([2]; first compound 15.81 µM)	relative viability ([2]; first compound 50 µM)	relative viability ([3]; first compound 0.5 µM)	relative viability ([3]; first compound 1.581 µM)	relative viability ([3]; first compound 5 µM)	relative viability ([3]; first compound 15.81 µM)	relative viability ([3]; first compound 50 µM)	relative viability ([4]; first compound 0.5 µM)	relative viability ([4]; first compound 1.581 µM)	relative viability ([4]; first compound 5 µM)	relative viability ([4]; first compound 15.81 µM)	relative viability ([4]; first compound 50 µM)
LCLC-97TM1	0.866	0.896	0.903	0.841	0.808	0.778	0.742	0.772	0.766	0.797	0.379	0.259	0.4	0.449	0.481	0.432	0.619	0.656	0.517	0.397
HCC-15	0.621	0.578	0.581	0.609	0.627	0.796	0.828	0.902	0.9	0.775	0.884	0.818	0.867	1.01	0.94	0.72	0.669	0.702	0.758	0.714
UMC-11	–	0.504	0.473	0.628	0.6	0.4	0.314	0.387	0.393	0.457	0.586	0.573	0.69	0.664	0.846	0.307	0.288	0.299	0.322	0.327
NCI-H1651	0.421	0.554	0.427	0.436	0.396	0.582	0.589	0.583	0.579	0.493	0.926	0.884	0.83	0.853	0.911	0.927	1.05	1.12	1.07	1.01
NCI-H2023	0.624	0.478	0.563	0.542	0.617	0.788	0.574	0.687	0.706	0.85	0.652	0.565	0.619	0.614	0.737	1.09	0.985	1.03	0.974	1.03
COR-L 105	0.284	0.384	0.34	0.298	0.272	0.87	0.807	0.628	0.743	0.804	0.871	0.838	0.901	0.835	0.79	0.595	0.747	0.778	0.816	0.594
NCI-H1734	0.399	0.374	0.506	0.452	0.504	0.856	0.697	0.787	0.866	0.826	0.652	0.559	0.741	0.582	0.716	0.913	0.812	0.86	0.988	0.948
NCI-H3122	0.879	0.858	0.894	0.92	0.867	1.04	1.13	1.03	1.06	1.19	0.283	0.275	0.275	0.252	0.279	1.03	0.994	1.01	1.04	1.03
CAL-12T	0.573	0.399	0.352	0.351	0.404	0.865	0.725	0.684	0.873	0.979	0.577	0.614	0.92	0.579	0.831	1.06	1.22	1.21	1.23	1.23
HCC-78	0.529	0.421	0.495	0.374	0.375	0.632	0.381	0.438	0.446	0.509	0.349	0.325	0.338	0.314	0.358	0.865	0.82	0.993	0.768	0.777
NCI-H2085	0.274	0.267	0.223	0.274	0.232	0.853	0.63	0.822	0.847	0.873	0.904	0.783	0.826	0.753	0.847	1.03	1.04	1.25	1.03	1.2
